Results on three compounds are retold here after patent US20090048160A1, “Antimicrobial activity of bovine bactericidal/permeability-increasing protein (BPI)-derived peptides against Gram-negative bacterial mastitis isolates” (priority 2007, published 2009).

The subject of one assay is Enterobacter cloacae. In words: microbe, parasite or virus in culture. Format: cell-based. The source says:
(§1) Bacterial isolates of Escherichia coli, Klebsiella pneumonia, Serratia marcescens, Pseudomonas aeruginosa, Enterobacter cloacae, and Enterobacter aerogenes, which were obtained from clinical cases of bovine mastitis, were used to assess the bactericidal activity of peptides in a broth microdilution assay. Isolates were obtained from repositories at Cornell University (gift of Dr. Y. H. Schukken; Quality Milk Production Services Program, Cornell University, Ithaca N.Y.) and the USDA Beltsville Agricultural Research Center. […] A. J. Bramley, Institute for Animal Health, Compton Laboratory, Newbury, England), which was originally isolated from a clinical case of mastitis ([…]. Dairy Res. 43: 205-211) was also used to assess the bactericidal activity of the peptides in biological fluids. Reference strains of E. coli (ATCC 25922) and Staphylococcus aureus (ATCC 29213) were obtained from a commercial source (American Type Culture Collection (ATCC), Manassas, Va.). To obtain fresh inoculums for evaluation, a sterile loop of each bacterial glycerol stock was streaked on a blood agar plate. After an overnight incubation at 35° C., a single uniform colony was picked and sub-passaged by streaking on a new blood agar plate and incubating the plate overnight at 35° C. To evaluate the antimicrobial activity of the peptides against various clinical mastitis bacterial isolates, the minimum inhibitory concentration (MIC) and the minimum bactericidal concentration (MBC) of these peptides against the isolates were determined using a standardized broth microdilution assay. In addition to the mastitis isolates, E. coli (ATCC 25922) and S. aureus (ATCC 29213) reference strains were evaluated. […] The assays were performed in accordance with Clinical and Laboratory Standards Institute (CLSI) [formerly National Committee for Clinical Laboratory Standards (NCCLS)] guidelines (National Committee for Clinical Laboratory Standards. 1999. Methods for Determining Bacterial Activity of Antimicrobial Agents: Approved Guideline. Wayne, Pa.; National Committee for Clinical Laboratory Standards. 2002. Performance Standards for Antimicrobial Disk and Dilution Susceptibility Tests for Bacteria Isolated from Animals: Approved Standard. 2nd Edition, Wayne, Pa.). […] The bacterial suspension was then diluted 100-fold in cation-adjusted Mueller-Hinton broth to reach a final inoculum concentration of 10^6 CFU/ml. […] A negative control column was included in the plate that included 100 μl of broth alone. The plates were incubated for 18 h at 35° C. with ambient air circulation and without shaking. The wells were subsequently inspected for cloudiness and pellet formation using a magnifying glass plate reader. The lowest concentration at which no pellet or cloudiness was apparent in a given well was identified as the MIC. […] The plates were incubated overnight at 35° C. and colonies subsequently enumerated. The MBC values were determined as the lowest concentration at which ≧99.9% of inoculated bacteria were killed. All assays were performed in triplicate and the MIC and MBC range reported.

For a further assay, the system named is Escherichia coli. In words: microbe, parasite or virus in culture. Format: cell-based. The following applies: Escherichia coli; for MIC: read-out: MIC.
Text: as §1

Another assay has as its system Klebsiella pneumoniae. The experiment in a line: microbe, parasite or virus in culture. Type of assay: cell-based. Conditions: Klebsiella pneumoniae, read-out: MIC.
Text: as §1

The test system of the next assay is Pseudomonas aeruginosa. The experiment in a line: microbe, parasite or virus in culture. Type of assay: cell-based. Conditions: Pseudomonas aeruginosa, read-out: MIC.
Text: as §1

For a further assay, the system named is Serratia marcescens. In words: microbe, parasite or virus in culture. Type of assay: cell-based. Conditions: Serratia marcescens, read-out: MIC.
Text: as §1

For the next assay, the system named is Staphylococcus aureus. In words: microbe, parasite or virus in culture. The following applies: ATCC29213; Staphylococcus aureus ATCC 29213; read-out: MIC. Format: cell-based.
Text: as §1

Assay [1] has as its system bacterial LPS derived from E. coli 0111:B4. The experiment in a line: LPS neutralization, Limulus amebocyte lysate (LAL) assay. Type of assay: biochemical. Conditions: 1 ng LPS. As to the method: FIG. 1 depicts the mean (±S.E.) percent neutralization of bacterial LPS bioactivity as determined with the Limulus amebocyte lysate assay. Increasing concentrations of peptides or polymixin B were incubated with 1 ng of E. coli-derived LPS for 30 min. Following incubation, the amount of free LPS was determined by extrapolation from a standard curve and the percent of bound (neutralized) LPS was calculated.
The ability of the peptides to neutralize LPS was determined using a commercially available Limulus amebocyte lysate (LAL) assay (Cambrex BioScience Walkersville, Inc., Walkersville, Md.). As a positive control, polymyxin B (Sigma Chemical Co.) was evaluated in parallel with the peptides. Increasing concentrations of peptides or polymyxin B were incubated with 1 ng of highly purified bacterial LPS (Sigma Chemical Co.), derived from E. coli 0111:B4, in a 500 μl reaction volume of endotoxin-free water for 30 min at 37° C. while shaking at 100 rpm. Following the incubation, the amount of free LPS was determined in each sample according to the manufacturer's instructions. Briefly, 50 μl of the above mixture was placed into a 96-well microtiter plate and the reaction initiated by the addition of an equal volume of amoebocyte lysate. Following an incubation at 37° C. for 10 min, 100 μl of chromogenic substrate was added and the plate incubated for 5-10 min at 37° C. The reaction was stopped by the addition of 50 μl of glacial acetic acid and the absorbance measured at a wavelength of 405 nm on a microplate reader (Biotec Instruments, Inc., Winooski, Vt.). The amount of non-bound LPS was extrapolated from a standard curve and the percent inhibition calculated according to the following formula: […]
To determine whether the bBPI peptides were able to neutralize LPS, increasing concentrations of the peptides were incubated with LPS (1 ng) and the resulting mixture assayed with the LAL assay (FIG. 1). As a positive and negative control, respectively, polymyxin B and a non-BPI-derived peptide were also assayed. […] In contrast, bBPI142-169 and bBPI90-99,148-161 were able to neutralize ≧93% of LPS activity at peptide concentrations of 30 and 100 μg/ml, respectively.

Values after ≈ are worked out from the molar mass of the structure shown. Where two headings read alike, the source gives them in different places.

As to `CN(C)[C@@H]1C(O)=C(C(N)=O)C(=O)[C@@]2(O)C(O)=C3C(=O)c4c(O)cccc4[C@@](C)(O)[C@H]3C[C@@H]12` [Tetracycline, reference compound], the MIC in the assay on Enterobacter cloacae (Enterobacter cloacae Isolate #2, read-out: MIC) was 4 µg/mL (≈ 9 µM); against Enterobacter cloacae (Enterobacter cloacae Isolate #4) it was 4 µg/mL (≈ 9 µM); in the assay with Escherichia coli (ATCC25922, Escherichia coli ATCC 25922) it was 0.5 to 1 µg/mL (≈ 1.13 to 2.25 µM); in the assay on Escherichia coli (Escherichia coli Isolate #1) it was 4 µg/mL (≈ 9 µM); in the assay on Escherichia coli (Escherichia coli Isolate #2) it was 4 µg/mL (≈ 9 µM); in the assay on Escherichia coli (Escherichia coli Isolate #3) it was 4 µg/mL (≈ 9 µM). Moreover, the MIC with Escherichia coli (Escherichia coli Isolate #4) amounted to 4 µg/mL (≈ 9 µM); in the assay with Escherichia coli (Escherichia coli Isolate #5) it was 4 µg/mL (≈ 9 µM); with Escherichia coli (Escherichia coli Strain P4), 1 µg/mL (≈ 2.25 µM); in the assay on Klebsiella pneumoniae (Klebsiella pneumoniae Isolate #1), 64 µg/mL (≈ 144 µM); with Klebsiella pneumoniae (Klebsiella pneumoniae Isolate #3) it was 1 µg/mL (≈ 2.25 µM); in the assay with Klebsiella pneumoniae (Klebsiella pneumoniae Isolate #4) it was 64 µg/mL (≈ 144 µM). The MIC with Klebsiella pneumoniae (Klebsiella pneumoniae Isolate #5) is 16 µg/mL (≈ 36 µM); with Klebsiella pneumoniae (Klebsiella pneumoniae Isolate #6), 0.5 µg/mL (≈ 1.13 µM); in the assay on Pseudomonas aeruginosa (Pseudomonas aeruginosa Isolate #1) it was 32 µg/mL (≈ 72 µM); with Pseudomonas aeruginosa (Pseudomonas aeruginosa Isolate #2), 16 µg/mL (≈ 36 µM); in the assay on Pseudomonas aeruginosa (Pseudomonas aeruginosa Isolate #3), 32 µg/mL (≈ 72 µM); in the assay with Pseudomonas aeruginosa (Pseudomonas aeruginosa Isolate #4), 16 µg/mL (≈ 36 µM). Also, the MIC is 32 µg/mL (≈ 72 µM) in the assay with Pseudomonas aeruginosa (Pseudomonas aeruginosa Isolate #5); 16 µg/mL (≈ 36 µM) in the assay on Pseudomonas aeruginosa (Pseudomonas aeruginosa Isolate #6); 32 µg/mL (≈ 72 µM) in the assay with Serratia marcescens (Serratia marcescens Isolate #1); 64 µg/mL (≈ 144 µM) in the assay on Serratia marcescens (Serratia marcescens Isolate #2); 64 µg/mL (≈ 144 µM) with Serratia marcescens (Serratia marcescens Isolate #3); 64 µg/mL (≈ 144 µM) with Serratia marcescens (Serratia marcescens Isolate #4). Also, the MIC with Serratia marcescens (Serratia marcescens Isolate #5) was 64 µg/mL (≈ 144 µM); with Serratia marcescens (Serratia marcescens Isolate #6) it was 64 µg/mL (≈ 144 µM); in the assay on Staphylococcus aureus, 0.25 to 0.5 µg/mL (≈ 0.563 to 1.13 µM). Besides, the MBC in the assay with Escherichia coli (ATCC25922, Escherichia coli ATCC 25922, read-out: MBC) came out at 64 µg/mL (≈ 144 µM).
With “MCHWAGGASNTGDARGDV FGKQAG (MCHWAGGASNTGDARGDVFGKQAG; listed as Bos sp.) [control peptide, non-BPI-derived control peptide provided by the peptide synthesis company; negative control, reference compound]”, the “inhibition of LPS activity” value in assay [1] (100 μg/ml, 30 min) is on record as “no inhibitory effect”.
For polymyxin B [reference compound], the “inhibition of LPS activity (in words)” value in assay [1] (increasing concentrations) was “inhibited LPS activity in dose-dependent manner”.
